For one data set, the system named is cortical neurons. The data set is described as follows: Mitochondrial respiration, XF Cell Mito Stress Test (OCR). Format: cell-based, rat. As to conditions: 3 mM, pre-treatment 24 h. The procedure: The preparation of primary cortical culture was as described before, but the cells were seeded on XF 96 well cell culture microplates. On the day of assay, culture media were changed to XF Assay medium (Seahorse Biosciences, USA). Prior to assay, plates were transferred into an incubator with CO2 supplementation at 37° C. and kept for 1 hour. The overall OCR was calculated.
The XF Cell Mito Stress Test modulates respiration that target components of the electron transport chain (ETC) in the mitochondria to reveal key parameters of metabolic function. The modulators (oligomycin, FCCP, and a mix of rotenone and antimycin A) are serially injected to measure ATP production, maximal respiration, and non-mitochondrial respiration. Proton leak and spare respiratory capacity are then calculated using these parameters.

The next data set deals with primary cortical cells. Kind of data set: Oxygen-glucose deprivation (OGD) of primary cortical culture, MTT assay. Format: cell-based, rat. The source says:
The oxygen-glucose deprivation (OGD) is a common and well-validated cell model used for brain injuries like stroke-related studies. […] To induce the OGD model, the Neurobasal medium supplemented with B27 (GIBCO/Life Technologies of Thermo Fisher Scientific Corporation) was removed from the cultures, and then rinsed with Neurobasal-A Medium (no D-glucose and sodium pyruvate [GIBCO/Life Technologies of Thermo Fisher Scientific Corporation]). The cultured cells were maintained in a humidified incubator at 37° C. with 5% CO2 for 1 h to consume the resting glucose and pyruvate. The cultures were then subjected to an anaerobic environment of 95% N2-5% CO2 for 4 hours. Oxygen concentration was monitored by an oxygen analyzer (Proox-110, Demott St, Lacona, N.Y., USA), as maintained at approximately 1.0% throughout the experiment.

For another data set, the system named is SH-SY5Y cells. Kind of data set: MPTP toxicity in SH-SY5Y cells, MTT assay. Format: cell-based, human. The procedure: SH-SY5Y, the human neuroblastoma cell line, was incubated with MPTP (750 μM) for 24 hrs.
The test system of data set [1] is MPTP/3-NP-induced C57BL/6J mice. The data set is described as follows: Rotarod in MPTP plus 3-NP intoxicated mice (MSA-P model). The data set is classed as in vivo, mouse. The following applies: 256 mg/kg body weight/day for one week after 9 days MPTP/3-NP, vs saline. Here is the method:
Male C57BL/6J mice (age, 8-12 weeks) were randomly assigned to 2 groups—vehicle control and MPTP/3-NP-induced groups. MPTP and 3-NP were administered during a 9-day intoxication period. 3-NP was administered i.p. every 12 h (total dose 450 mg/kg in 9 days) and MPTP i.p. at 10 mg/kg/day (total dose 90 mg/kg in 9 days).
Rotarod motor activity was measured before and after chronic MPTP/3-NP induction, respectively. Time spent on the rod at each level of revolving speed indicated motor performance. Mice were trained at the speed accelerating from 4 to 10 rpm over 5 min before the test (−7, −5, −3 Days). During the test, all animals started at 4 rpm and accelerated from 4 to 20 rpm over 5 min with each mouse experiencing three trials per day with inter-trial interval of 10 min. The average latency time of each mouse to fall is calculated.
(In general: Falling from the rotarod earlier than controls is read as motor impairment.)

For another data set, the system named is C57BL/6J mice. The data set is described as follows: Von Frey test of acute mechanical pain. The following applies: 256 mg/kg i.p. Format: in vivo, mouse. The procedure:
Animals are housed and kept in the same condition as previous described.
The Von Frey test is used to assess mechanical nociception. A mouse is placed in a small box (10 cm×6 cm×10.5 cm) on a confined area of wire mesh (65 cm×21 cm×31 cm) (2450 Electronic Von Frey Anesthesiometer, IITC, U.S.A.). The mouse was kept in the box for 60 min to acclimatize. When the tested mouse calms down, a special tip with electrode inside was used to poke its hind paw.

A short description of data set [2]: Plasma pharmacokinetics of lithium after oral gavage (ICP-MS). The procedure:
Male Sprague-Dawley rats weighed between 240-260 g were randomly assigned to two groups. […] These two regimens would provide the same molarity of lithium and benzoate. The chemicals were dissolved in PBS, and then administrated by oral gavage. All rats were fasted overnight with free access to water before experiments. After single dose administration of drugs, the blood samples were then collected at the time point 0, 5, 15, 30, 60, 90, 120, 240, 360, 720, and 1440 min.
Blood samples were collected in tubes coated with sodium heparin from jugular vein catheterized rats. Then, the blood samples were kept on ice and centrifuged at 2,500×g for 15 min at 4° C. The supernatant was collected and then kept frozen at −80° C. until further processing.

Data set [3] deals with B6CBA-Tg(HDexon1)62Gpb/3J mice. Kind of data set: Survival of HDexon1 (R6/2) transgenic Huntington's disease mice. The data set is classed as in vivo, mouse. As to conditions: 256 mg/kg/day i.p. from 11 weeks after birth, vs vehicle-treated HDexon1 transgenic mice. The procedure: Animals used in the examples of the present disclosure were housed in an animal room under temperature control (24-25° C.) and 12:12 light-dark cycle. Standard laboratory chow and tap water were available ad libitum. The experiments procedures were approved by the Institutional Animal Care and Use Committee and were performed in compliance with national animal welfare regulations. Transgenic mice B6CBA-Tg(HDexon1)62Gpb/3J were purchased from the Jackson Laboratory (USA).
Drug regimen was initiated 11 weeks after birth, and continued until the end of study. […] The mice of vehicle group received injections of the same volume of saline.
Date and cause of death were recorded for each mouse. Animals were closely monitored and euthanized if moribund, which was defined as the inability of mice to right themselves 30 seconds after being placed on a side, in accordance with the criteria for severe morbidity. The moribund mice were recorded as “dead”, and euthanized using carbon dioxide.

In a further data set the test system is primary cortical neurons. Kind of data set: Aβ25-35 cytotoxicity in primary cortical culture, cell survival (MTT).
For data set [4], the system named is cortical cells with Aβ25-35 exposure. Kind of data set: Aβ25-35 cytotoxicity with or without NMDA receptor antagonist MK801, cell survival.
Experimental: Aβ25-35 (Cat. No. A4559, Sigma) was dissolved in autoclaved ddH2O to make a stock solution of 2 mM, dispensed into aliquots, and immediately stored at −80° C. until use.
In this study, the application of MK801 could reveal whether the neuroprotective effects of drugs were mediated by NMDA receptor.

One compound from US10668032B2 (SyneuRx International (Taiwan) Corp., priority 2016, dated 2020) can be followed below.

Each structure is given as a SMILES string.

Experimental for primary cortical neurons: MTT assay was used to assess the extents of cell survival. MTT (3-(4,5-dimethylthiazol-2-yl)-2,5-diphenyltetrazolium bromide) was added to the culture, incubated at 37° C. for 4 hours. Insoluble purple formazan products were yield by living cells. The colorimetric method was used to quantify the surviving cells, and “cell survival (%)” was defined as the mean numbers of surviving cells.
Primary cortical cultures were prepared as previous described. Aβ25-35 (Cat. No. A4559, Sigma) was dissolved in autoclaved ddH2O to make a stock solution of 2 mM, dispensed into aliquots, and immediately stored at −80° C. until use.

Take `O=C([O-])c1ccccc1.[Li+]` [lithium benzoate]: in the data set with cortical neurons, the “basal respiration (basal OCR)” value is on record as “reduced more basal OCR than the other groups” and the spare respiratory capacity entry is “increasing of spare respiratory capacity”. In the data set with cortical neurons (versus NaBen or LiCl), the ATP production entry is given as “better reduction levels” and the proton leak entry is recorded as “better reduction levels”. Also, in the data set on primary cortical cells (overall treatment 53 hours (pre-treatment 24 h, habituation 1 h, OGD 4 h, reperfusion 24 h), 0.3, 1, 3, 5 mM), the “cell survival under oxygen-glucose deprivation” value is on record as “significantly protected”. Further, the “cell survival under oxygen-glucose deprivation” value in the data set with primary cortical cells (post-treatment for 48 hours reperfusion) was “cell protection effect at all dose levels”. The “cell survival improvement compared with sodium benzoate and lithium chloride” value with SH-SY5Y cells (1 mM each, MPTP 750 μM) is reported as “better performance of cell survival improvement than the other two groups”. Also, the “dose at which the protective effect was most obvious” value with SH-SY5Y cells (0.3, 1, 3 mM tested, MPTP) is listed as 1 mM. Besides, in data set [1], the “retention time on rotarod” value was “significantly improved”. Further, the “acute mechanically evoked pain (paw withdrawal threshold)” value in the data set with C57BL/6J mice (vs PBS) is given as “alleviated”. For the same compound, in the data set on C57BL/6J mice (tested at 30, 60, 90, 120 min), the “time course of the antinociceptive effect” value was “obvious after 30 min of administration and lasted till 60 min”. Moreover, in data set [2] (rat, single oral gavage, NaBen 287.9 mg/kg + Li2CO3 74.2 mg/kg or LiBen 255.3 mg/kg), the Tmax of lithium was 2.208 h. The Cmax in [2] (read-out: Cmax of lithium, rat, single oral gavage, NaBen 287.9 mg/kg + Li2CO3 74.2 mg/kg or LiBen 255.3 mg/kg) is 1720 µM. Further, the “proportion of mice surviving over time” value in [3] is reported as “improved”. Moreover, the “cortical cell survival after Aβ25-35” value with primary cortical neurons (10 μM Aβ 25-35 for 2 days, then drug 1 mM for 4 days, vs no drug treatment) was “statistical improvement”. For the same compound, in the data set with primary cortical neurons (1 mM each, 4 days), the “reduction of cell death from Aβ25-35 toxicity compared with sodium benzoate and lithium chloride” value is listed as “much more than the other two drugs”. Further, the “protective effect with or without MK801 treatment” value in [4] (0.5 mM, MK801 10 μM vs 0 μM) was “No obvious differences”. Also, in data set [4] (post-treatment 0.5 mM, MK801 0 μM), the “cell survival with Aβ25-35 exposure” value is on record as “elevate the cell survival”.
